According to publication PMC10610105, “Designing and Exploration of the Biological Potentials of Novel Centrosymmetric Heteroleptic Copper(II) Carboxylates” (Pharmaceuticals, 2023):
In brackets after ≈: the same amount, converted by molar mass.

Columns and labels:
[1] = Hydroxyl radical scavenging assay; conditions: for IC50: hydroxyl radical scavenging, read-out: IC50 (µM) ± SEM; for % Inhibition: hydroxyl radical
Method: (§1) DPPH and hydroxyl (•OH) radical scavenging assays based on spectroscopic measurements are simple in vitro methods used to evaluate the antioxidant potential of test compounds. The promising results of these assays could be exploited as preliminary tests in search of drugs with potential anticancer, anti-aging, and anti-inflammatory activities. Within this context, the abilities of the free ligand acid (HL) and synthesized complexes (1 and 2) to scavenge DPPH and hydroxyl radicals were determined in order to evaluate their potential antioxidant ability compared to that of vitamin C as a reference compound.
The hydroxyl radical scavenging activities of the free ligand acid and synthesized complexes (1 and 2) were evaluated according to a reported method. Different concentrations (15, 30, 60, 120, and 240 μM) of the free ligand acid and complexes were mixed with 0.4 M phosphate buffer (pH 6.6) (1000 μL), 0.1% hydrogen peroxide (100 μL), 3.7 mM o-phenanthroline (200 μL), and 7.5 mM ferrous sulfate (100 μL). The mixtures were diluted with distilled water to 3000 μL before incubating for 30 min at room temperature. The absorbance of mixtures was recorded at 510 nm using ascorbic acid as a standard.
The %scavenging was calculated using the following formula: %scavenging=As−Ac/Ab−As×100 where As, Ac, and Ab are the observed absorbance values of the sample, control, and blank, respectively.

[2] = DPPH free radical scavenging assay; conditions: for IC50: DPPH radical scavenging, read-out: IC50 (µM) ± SEM; for % Inhibition: DPPH
Method: as §1
The in vitro DPPH free radical scavenging activities of the free ligand acid and complexes 1 and 2 were assessed, as per a reported procedure with slight modification in the protocol.
Different concentrations (15, 30, 60, 120, and 240 μM) of the free ligand acid and complexes were mixed with 1000 μL of 255 μM DPPH solution made in ethanol. The mixture solutions were shaken and incubated in the dark for 30 min at room temperature. The absorbance of the solutions was measured at 518 nm using a UV-VIS spectrophotometer. Ascorbic acid of fixed concentration was used as a positive control. The readings were made in triplicate. Percentage inhibition of the test compounds was evaluated by using the formula: %scavenging=Ac−As/Ac×100 where Ac and As are the observed absorbance values of the control and the sample, respectively.

[3] = test system: α-amylase; experiment: α-amylase enzyme inhibition assay; format: biochemical, Saccharomyces cerevisiae; conditions: for IC50: α-amylase inhibition
Method: A reported protocol with slight modification was used to perform the α-amylase enzyme inhibition assay. A stock solution (1 unit/mL) was prepared by dissolving α-amylase solution from Saccharomyces cerevisiae in 50 mM potassium phosphate buffer (pH 6.8), and for the substrate, in the same buffer 20 mM p-nitrophenyl-α-D-glucopyranoside (PNG) was prepared. The assay was conducted in triplicate using 96-well plates. […] For the experiments, each well contained phosphate buffer 65 μL (50 mM, pH 6.8), PNG 25 μL, α-amylase enzyme 5 μL (0.05 U/mL), and test sample 5 μL. The plates were allowed to incubate at 37 °C for 30 min, followed by the addition of 100 μL sodium bicarbonate (0.5 mM) as a stopping agent.
By using a microplate reader (BioTek Elx-800, Winooski, VT, USA), absorbance was recorded at 405 nm. The percent inhibition was calculated using the formula: %Inhibition=Acontrol−Asample/Acontrol × 100 where Acontrol is the control absorbance and Asample is the sample absorbance.

[4] = test system: SS-DNA (salmon sperm DNA); experiment: DNA binding study by viscometry; conditions: SS-DNA 87.72 μM, compound 5–30 μM, Ostwald viscometer
Method: The viscosity of the SS-DNA solution (87.72 μM) in the absence and the presence of complexes 1 and 2 (5–30 μM) was measured using an Ostwald viscometer. For accuracy, the readings were made in triplicate for each sample, and then an average flow rate was calculated. Data are presented as (η/ηo)^1/3 vs. binding ratio ® of [complex]/[DNA], where η is the relative viscosity of the complex-DNA adduct, and ηο is the relative viscosity of DNA alone. The relative viscosity values for SS-DNA in the presence (η) and the absence (ηο) of the complexes were calculated using the relation η = (t − to)/to, where t is the observed flow time in seconds.

[5] = test system: SS-DNA (salmon sperm DNA); experiment: DNA binding study by UV-visible absorption spectroscopy; conditions: complex-DNA interaction, calculated
Method: UV-visible absorption measurements can be used to monitor changes occurring in λmax values (red or blue shifts) and absorption intensity (hyper- or hypochromism) of either a test compound or DNA as a result of any possible interaction. These changes can be used to find some details about the mode of interaction of metal complexes with DNA [25]. In the present study, absorption titrations were made with a fixed concentration (200 μM) of complexes against varying concentrations (5-30 μM) of SS-DNA. The extent of complex-DNA binding was assessed by calculating intrinsic binding constant (Kb) values using the well-known Benesi-Hildebrand equation [26]. Ao/A-A0=ε[…]+1/Kb[DNA] where Kb is the binding constant, A is the absorbance of complex-DNA adduct, Ao is the absorbance of pure complex solution, [DNA] is the concentration of SS-DNA in mol/L, εH-G is the molar absorption co-efficient of each complex-DNA adduct, and εG is the molar absorption co-efficient of pure complex. […] Ao/A-Ao along the ordinate, as shown in Figure 3B and Figure 4B for complexes 1 and 2, respectively. […] The SS-DNA solution (ε = 6600 M^-1 cm^-1 at 260 nm) concentration was determined via absorption spectroscopy. The complex solutions (200 μM) were made in aqueous DMSO (1:4). […] To eliminate the absorbance of DNA, equivalent SS-DNA solutions were added to the complex and reference solutions. […]

| Structure (SMILES) | IC50 [1] [µM] | % Inhibition ([1]; dose conc. 15 µM) [%] | % Inhibition ([1]; dose conc. 30 µM) [%] | % Inhibition ([1]; dose conc. 60 µM) [%] | % Inhibition ([1]; dose conc. 120 µM) [%] | % Inhibition ([1]; dose conc. 240 µM) [%] | IC50 [2] [µM] | % Inhibition ([2]; dose conc. 15 µM) [%] | % Inhibition ([2]; dose conc. 30 µM) [%] | % Inhibition ([2]; dose conc. 60 µM) [%] | % Inhibition ([2]; dose conc. 120 µM) [%] | % Inhibition ([2]; dose conc. 240 µM) [%] | % α-Amylase Activity ([3]; concentration 31.25 µg/mL) [%] | % α-Amylase Activity ([3]; concentration 62.5 µg/mL) [%] | % α-Amylase Activity ([3]; concentration 125 µg/mL) [%] | % α-Amylase Activity ([3]; concentration 250 µg/mL) [%] | % α-Amylase Activity ([3]; concentration 500 µg/mL) [%] | IC50 [3] [µg/mL] | effect on the relative viscosity of the DNA [4] | ΔG [5] [kcal/mol] |
| --- | --- | --- | --- | --- | --- | --- | --- | --- | --- | --- | --- | --- | --- | --- | --- | --- | --- | --- | --- | --- |
| O=C1O[C@H]([C@@H](O)CO)C(O)=C1O [Vit. C, ascorbic acid, reference compound] | 162 ± 12.1 | 6.78 | 10.49 | 16.87 | 43.87 | 70.55 | 127 ± 14 | 7.09 | 15.09 | 29.98 | 58.09 | 82.35 |  |  |  |  |  |  |  |  |
| O=C(O)Cc1ccc(F)c(F)c1 [HL, 3,4-difluorophenylacetic acid] | 1771 ± 1.17 | 0.009 | 1.050 | 1.070 | 2.770 | 6.660 | 1010 ± 1.99 | 1.09 | 3.05 | 5.07 | 7.77 | 12.55 | 1.72 | 1.9 | 9.22 | 19.67 | 32.95 | 728.17 (≈ 4.23 mM) | no effect |  |
| Cc1ccccn1.Cc1ccccn1.O=C([O-])Cc1ccc(F)c(F)c1.O=C([O-])Cc1ccc(F)c(F)c1.O=C([O-])Cc1ccc(F)c(F)c1.O=C([O-])Cc1ccc(F)c(F)c1.[Cu+2].[Cu+2] [complex 1, [Cu2(3,4-F2C6H3CH2COO)4(2-CH3py)2]] | 283 ± 7.01 | 0.05 | 10.00 | 15.04 | 28.32 | 39.99 | 214 ± 7.77 | 8.07 | 15.77 | 25.39 | 39.00 | 51.12 | 6.03 | 7.24 | 22.24 | 41.12 | 51.22 | 437.73 | pronounced increase | -6.979 |
| C[C@H]1O[C@H](O[C@H]2[C@H](O)[C@@H](O)[C@@H](O[C@H]3[C@H](O)[C@@H](O)C(O)O[C@@H]3CO)O[C@@H]2CO)[C@H](O)[C@@H](O)[C@@H]1N[C@H]1C=C(CO)[C@@H](O)[C@H](O)[C@H]1O (stereo partly shown) [Acrabose, acarbose, reference compound] |  |  |  |  |  |  |  |  |  |  |  |  | 14.34 | 26.42 | 46.39 | 68.61 | 84.33 |  |  |  |
| Cc1cccnc1.Cc1cccnc1.O=C([O-])Cc1ccc(F)c(F)c1.O=C([O-])Cc1ccc(F)c(F)c1.O=C([O-])Cc1ccc(F)c(F)c1.O=C([O-])Cc1ccc(F)c(F)c1.[Cu+2].[Cu+2] [complex 2, [Cu2(3,4-F2C6H3CH2COO)4(3-CH3py)2]] | 308 ± 6.89 | 0.04 | 1.30 | 14.50 | 25.00 | 35.99 | 365 ± 5.31 | 4.045 | 5.150 | 14.975 | 21.500 | 32.550 | 5.33 | 8.33 | 20.46 | 38.00 | 50.30 | 455.32 | pronounced increase | -7.808 |
